Source: patent US20070197594A1, “Cyclic amine derivative or salt thereof” (ASTELLAS PHARMA INC., priority 2004, published 2007)
Where a name gives a salt, the structure may show the parent alone.

Target: NMDA receptor
Assay: MK-801 binding test ([3H]MK-801-binding assay, rat membrane specimen)
Conditions: NMDA receptor affinity, [3H]MK-801 4 nM in assay, Ki computed from IC50
Experimental: 1) Preparation of Specimens of Rat Meninges:
The whole brain was taken out from 10-week-age SD rats (30 heads, by Nippon SLC), and the cerebellum was removed from it. A 0.32 M sucrose solution was added to the part containing the cerebrum, cut in a mixer, and homogenized with a Teflon™ homogenizer. This was centrifuged at 2800 rpm and 4° C. for 15 minutes, and the resulting supernatant was again centrifuged at 15000 g and 4° C. for 20 minutes. The pellets were suspended in 50 mM Tris-HCL (pH 7.5) containing 0.08% Triton X-100, and kept statically on ice for 30 minutes, then centrifuged at 15000 g and 4° C. for 20 minutes. The pellets were suspended in 50 mM Tris-HCl (pH 7.5) added thereto, and centrifuged at 15000 g and 4° C. for 20 minutes. 50 mM Tris-HCl (pH 7.5) was again added to the pellets, and centrifuged in the same manner as before. The pellets were suspended in 20 ml of 50 mM Tris-HCl (pH 7.5) added thereto, and homogenized with a Teflon™ homogenizer. The membrane specimen was divided into small tubes and stored in a deep freezer (−80° C.). Before use, this washed twice with 5 mM Tris-HCl (pH 7.5) of five times that of the membrane specimen. Its concentration was controlled at 1 mg protein/ml with 5 mM Tris-HCl (pH 7.5) added to it, and this was used for assay.
50 μl of the rat membrane specimen (1 mg protein/ml) was added to a solution of a test compound dissolved in 1 μl of DMSO.

Compound | Ki [nM]
CN1CCC(C2(O)c3cc(Cl)c(F)cc3CC2(C)C)CC1 (stereo not shown) [Example 28] | 1000
CCOc1c(F)ccc2c1C(O)(C1CCN(C)CC1)C(C)(C)C2 (stereo not shown) [Example 98] | 8400
COc1c(F)ccc2c1C1(CCC(CN3CCCC3)O1)C(C)(C)C2 (stereo not shown) [Example 145] | 8400
CN1CCC(C2(O)c3c(Br)ccc(F)c3CC2(C)C)CC1 (stereo not shown) [Example 36] | 1900
Cc1ccc2c(c1)C(O)(CC(C)(C)N)C(C)(C)C2 (stereo not shown) [Example 131, 1-(2-Amino-2-methylpropyl)-2,2,6-trimethylindan-1-ol fumarate] | 4800
CN1CCC(C23OCCOc4c(F)ccc(c42)CC3(C)C)CC1 (stereo not shown) [Example 143, 4-(9-Fluoro-5,5-dimethyl-2,3,5,6-tetrahydro-4aH-indeno[1,7-ef][1,4]dioxepin-4a-yl-1-methylpiperidine fumarate] | 700
CN1CCC(C2(O)c3c(ccc(F)c3Br)CC2(C)C)CC1 (stereo not shown) [Example 34] | 1800
Cc1ccc2c(c1)C(O)(C1CCN(C)CC1)C(C)(C)C2 (stereo not shown) [Example 6, 2,2,6-trimethyl-1-(1-methylpiperidin-4-yl)indan-1-ol] | 880
CN1CCC(C2(O)c3ccccc3CC2(C)C)CC1 (stereo not shown) [Example 1, 2,2-Dimethyl-1-(1-methylpiperidin-4-yl)indan-1-ol monofumarate] | 1400
CN1CCC(C2(O)c3cc(Br)cc(F)c3CC2(C)C)CC1 (stereo not shown) [Example 32] | 440
COc1c(F)c(F)cc2c1C(O)(C1CCN(C)CC1)C(C)(C)C2 (stereo not shown) [Example 108] | 5600
CN1CCC(C2(O)c3c(c(F)cc4c3OCC4)CC2(C)C)CC1 (stereo not shown) [Example 139, 5-Fluoro-7,7-dimethyl-8-(1-methylpiperidin-4-yl)-2,6,7,8-tetrahydro-2H-indeno[4,5-b]furan-8-ol fumarate] | 5000
CN1CCC(C2(O)c3ccccc3CCC2(C)C)CC1 (stereo not shown) [Example 53] | 4100
COc1cc(F)c2c(c1OC)C(O)(C1CCN(C)CC1)C(C)(C)C2 (stereo not shown) [Example 101] | 2100
COc1c(C#N)cc(F)c2c1C(O)(C1CCN(C)CC1)C(C)(C)C2 (stereo not shown) [Example 113] | 900
COc1c(F)ccc2c1C(O)(C1CCN(C)CC1)C(C)(C)C2 (stereo not shown) [Example 44] | 930
COc1ccc(F)c2c1C(O)(C1CCN(C)CC1)C(C)(C)C2 (stereo not shown) [Example 85] | 6200
CN1CCC(C2(O)c3ccc(Br)cc3CC2(C)C)CC1 (stereo not shown) [Example 15] | 860
CN1CCC(C2(O)c3cc(F)ccc3CC2(C)C)CC1 (stereo not shown) [Example 9] | 930
